{"source": "ChEMBL document CHEMBL1208722", "about": "“Synthesis of 2-(4-substituted benzyl-1,4-diazepan-1-yl)-N-(3,4-dihydro-3-oxo-2H-benzo[b][1,4]oxazin-7-yl)acetamides and their positive inotropic evaluation” (Bioorg Med Chem Lett, 2010)", "key": {"[1]": {"assay": "Positive inotropic activity in perfused rabbit left atrium assessed as increase in stroke volume at 10 uM", "assay_type": "functional, Oryctolagus cuniculus, Cardiac atrium"}, "[2]": {"assay": "Chronotropic activity in perfused rabbit left atrium assessed as change in heart rate (RVB = 89.51 +/- 0.09 beats/mins)", "assay_type": "tissue-based, Oryctolagus cuniculus, Cardiac atrium"}, "[3]": {"assay": "Chronotropic activity in perfused rabbit left atrium assessed as change in heart rate (RVB = 105.33 +/- 0.12 beats/mins)", "assay_type": "tissue-based, Oryctolagus cuniculus, Cardiac atrium"}, "[4]": {"assay": "Chronotropic activity in perfused rabbit left atrium assessed as change in heart rate (RVB = 92.52 +/- 017 beats/mins)", "assay_type": "tissue-based, Oryctolagus cuniculus, Cardiac atrium"}, "[5]": {"organism": "Oryctolagus cuniculus", "assay": "Positive inotropic activity in perfused rabbit left atrium assessed as increase in stroke volume", "assay_type": "functional, tissue-based", "settings": "Cardiac atrium"}, "[6]": {"assay": "Chronotropic activity in perfused rabbit left atrium assessed as change in heart rate (RVB = 102.31 +/- 0.07 beats/mins)", "assay_type": "tissue-based, Oryctolagus cuniculus, Cardiac atrium"}}}
{"molecule": "Cc1[nH]c(=O)c(C#N)cc1-c1ccncc1", "note": "[MILRINONE]", "values": [{"measurement": "Activity", "setting": "[1]", "value": 2.38, "unit": "%"}]}
{"molecule": "COc1cc(CN2CCCN(CC(=O)Nc3ccc4c(c3)OCC(=O)N4)CC2)ccc1OCc1ccc(Cl)cc1", "values": [{"measurement": "Activity", "setting": "[1]", "value": 2.87, "unit": "%"}, {"measurement": "Activity", "setting": "[2]", "value": 80.02, "unit": "bpm"}]}
{"molecule": "COc1cccc(CN2CCN(CC(=O)Nc3ccc4c(c3)OCC(=O)N4)CC2)c1", "values": [{"measurement": "Activity", "setting": "[1]", "value": 3.96, "unit": "%"}]}
{"molecule": "O=C(CN1CCCN(Cc2ccccc2F)CC1)Nc1ccc2c(c1)OCC(=O)N2", "values": [{"measurement": "Activity", "setting": "[1]", "value": 6.05, "unit": "%"}, {"measurement": "Activity", "setting": "[3]", "value": 102.88, "unit": "bpm"}]}
{"molecule": "COc1ccc(CN2CCCN(CC(=O)Nc3ccc4c(c3)OCC(=O)N4)CC2)cc1", "values": [{"measurement": "Activity", "setting": "[1]", "value": 3.22, "unit": "%"}, {"measurement": "Activity", "setting": "[4]", "value": 89.37, "unit": "bpm"}]}
{"molecule": "O=C(CN1CCCN(Cc2ccccc2Br)CC1)Nc1ccc2c(c1)OCC(=O)N2", "values": [{"measurement": "Activity", "setting": "[1]", "value": 7.68, "unit": "%"}, {"measurement": "Activity", "setting": "[5]", "value": "Dose-dependent effect"}, {"measurement": "Activity", "setting": "[6]", "value": 98.64, "unit": "bpm"}]}
